Data reported in patent publication US10941157B2, “Pesticidal compositions and uses thereof” (Gilead Apollo, LLC, priority 2015, dated 2021).
≈ marks a conversion by molar mass, not a printed value. Read-outs that look alike come from different tables or passages of the source.

How the values were obtained:
Format in all cases: cell-based
Septoria tritici (St) = assay: In vitro pathogen growth inhibition assay, St; conditions: Zymoseptoria tritici, 48 h
Procedure: (§1) A growth inhibition assay was conducted to determine the ability of compounds to control the growth of fungal pathogens, such as Botrtyis cinerea (Bc), Collectotrichum graminicola (Cg), Diplodia maydis (Dm), Fusarium moniliforme (Fm), Fusarium virguliforme (Fv), Phytophthora capsici (Pc), Rhizoctonia solani (Rs), and Septoria tritici (St). The compounds listed in Table 1 were each dissolved in DMSO at 2.5 mg/ml to produce compound stock solutions (“stocks”). […] Negative controls on each plate included 2% DMSO, water, and a blank (media+2% DMSO). Fungal spores were isolated from previously sub-cultured plates of Botrtyis cinerea (Bc), Collectotrichum graminicola (Cg), Diplodia maydis (Dm), Fusarium moniliforme (Fm), Fusarium virguliforme (Fv), Phytophthora capsici (Pc), and Septoria tritici (St). The isolated spores were diluted to individual concentrations with a 17% V8 liquid media. For Rhizoctonia solani (Rs), 1.5 mm mycelial plugs were used in place of spores and ¼ Potato Dextrose Broth (PDB) was used for dilution. The spore concentrations and plug sizes were based on growth curves generated at 48 hours for each pathogen. In a second 96-well plate, the spores or mycelial plugs, media, diluted compound solutions, and controls were combined. Once the compound was added, a true final concentration of compound in each well was measured by an OD600 reading, which adjusted for any compound precipitation that might have occurred in the well. Plate readings were repeated at both 24 and 48 hours. The blank negative control was used as a background subtraction. Additional visual ratings were performed at both 24 and 48 hours for checking on precipitation and confirming efficacy. […] Both tables list the concentration of each compound that was sufficient to ≥90% inhibition of growth for each of the fungal pathogens listed above. In addition, some of compounds were tested in a yeast growth inhibition assay for Saccharomyces cerevisiae (Sc). Table 2 lists the concentration of the tested compound that was sufficient to ≥75% inhibition of Saccharomyces cerevisiae (Sc).

Diplodia maydis (Dm) = assay: In vitro pathogen growth inhibition assay, Dm; conditions: Stenocarpella maydis, 48 h
Procedure: as §1

[1] = tested on: Fusarium virguliforme (Fv); assay: In vitro pathogen growth inhibition assay, Fv
Procedure: as §1

[2] = tested on: Fusarium moniliforme (Fm); assay: In vitro pathogen growth inhibition assay, Fm; conditions: Fusarium verticillioides
Procedure: as §1

[3] = tested on: Phytophthora capsici (Pc); assay: In vitro pathogen growth inhibition assay, Pc; conditions: 48 h
Procedure: as §1

[4] = tested on: Collectotrichum graminicola (Cg); assay: In vitro pathogen growth inhibition assay, Cg; conditions: 48 h
Procedure: as §1

Botrtyis cinerea (Bc) = assay: In vitro pathogen growth inhibition assay, Bc; conditions: 48 h
Procedure: as §1

Rhizoctonia solani (Rs) = assay: In vitro pathogen growth inhibition assay, Rs (mycelial plugs); conditions: Rhizoctonia solani, 48 h, mycelial plugs
Procedure: as §1

[5] = ≥90% inhibition, 48 hours vs 2% DMSO control, read-out: Compound Concentration (ppm) sufficient for ≥90% inhibition of growth, St
[6] = ≥90% inhibition, 48 hours vs 2% DMSO control, read-out: Compound Concentration (ppm) sufficient for ≥90% inhibition of growth, Dm
[7] = ≥90% inhibition, 48 hours vs 2% DMSO control, read-out: Compound Concentration (ppm) sufficient for ≥90% inhibition of growth, Fv
[8] = ≥90% inhibition, 48 hours vs 2% DMSO control, read-out: Compound Concentration (ppm) sufficient for ≥90% inhibition of growth, Fm
[9] = ≥90% inhibition, 48 hours vs 2% DMSO control, read-out: Compound Concentration (ppm) sufficient for ≥90% inhibition of growth, Pc
[10] = ≥90% inhibition, 48 hours vs 2% DMSO control, read-out: Compound Concentration (ppm) sufficient for ≥90% inhibition of growth, Cg
[11] = ≥90% inhibition, 48 hours vs 2% DMSO control, read-out: Compound Concentration (ppm) sufficient for ≥90% inhibition of growth, Bc
[12] = ≥90% inhibition, 48 hours vs 2% DMSO control, read-out: Compound Concentration (ppm) sufficient for ≥90% inhibition of growth, Rs
[13] = ≥90% growth inhibition, 48 hours, vs 2% DMSO control, read-out: Compound Concentration (ppm) sufficient for ≥90% inhibition of St
[14] = ≥90% growth inhibition, 48 hours, vs 2% DMSO control, read-out: Compound Concentration (ppm) sufficient for ≥90% inhibition of Dm
[15] = ≥90% growth inhibition, 48 hours, vs 2% DMSO control, read-out: Compound Concentration (ppm) sufficient for ≥90% inhibition of Fv
[16] = ≥90% growth inhibition, 48 hours, vs 2% DMSO control, read-out: Compound Concentration (ppm) sufficient for ≥90% inhibition of Fm
[17] = ≥90% growth inhibition, 48 hours, vs 2% DMSO control, read-out: Compound Concentration (ppm) sufficient for ≥90% inhibition of Pc
[18] = ≥90% growth inhibition, 48 hours, vs 2% DMSO control, read-out: Compound Concentration (ppm) sufficient for ≥90% inhibition of Cg
[19] = ≥90% growth inhibition, 48 hours, vs 2% DMSO control, read-out: Compound Concentration (ppm) sufficient for ≥90% inhibition of Bc
[20] = ≥90% growth inhibition, 48 hours, vs 2% DMSO control, read-out: Compound Concentration (ppm) sufficient for ≥90% inhibition of Rs

Structure (SMILES) | IC90 (Septoria tritici (St); [5]) [µg/mL] | IC90 (Diplodia maydis (Dm); [6]) [µg/mL] | IC90 [1, 7] [µg/mL] | IC90 [2, 8] [µg/mL] | IC90 [3, 9] [µg/mL] | IC90 [4, 10] [µg/mL] | IC90 (Botrtyis cinerea (Bc); [11]) [µg/mL] | IC90 (Rhizoctonia solani (Rs); [12]) [µg/mL] | IC90 (Septoria tritici (St); [13]) [µg/mL] | IC90 (Diplodia maydis (Dm); [14]) [µg/mL] | IC90 [1, 15] [µg/mL] | IC90 [2, 16] [µg/mL] | IC90 [3, 17] [µg/mL] | IC90 [4, 18] [µg/mL] | IC90 (Botrtyis cinerea (Bc); [19]) [µg/mL] | IC90 (Rhizoctonia solani (Rs); [20]) [µg/mL]
COc1ccc(F)cc1[C@H](Cn1c(=O)n([C@H](C)C(=O)NC(C)C)c(=O)c2c(C)c(-n3nccn3)sc21)OCCO [Compound I-097] | > 50 | ≥ 2 | 2 (≈ 3.48 µM) | 0.08 (≈ 0.139 µM) | > 50 | 50 (≈ 87 µM) | 0.4 (≈ 0.696 µM) | 2 (≈ 3.48 µM) | – | – | – | – | – | – | – | –
COc1ccc(F)cc1[C@@H](O)Cn1c(=O)n([C@H](C)C(=O)N2CCCC2)c(=O)c2c(C)c(-n3nccn3)sc21 [Compound I-222] | – | – | – | – | – | – | – | – | 50 (≈ 92.2 µM) | 10 (≈ 18.4 µM) | 0.4 (≈ 0.737 µM) | 0.4 (≈ 0.737 µM) | > 50 | 2 (≈ 3.69 µM) | 2 (≈ 3.69 µM) | 0.4 (≈ 0.737 µM)
Cc1c(-n2nccn2)sc2c1c(=O)n(C(C)(C)C(=O)NC(C)C)c(=O)n2C[C@H](O[C@H]1CC[C@@H](O)CC1)c1cc(F)ccc1OCC#N [Compound I-268] | – | – | – | – | – | – | – | – | > 50 | ≥ 2 | 2 (≈ 3 µM) | 0.08 (≈ 0.12 µM) | > 50 | 2 (≈ 3 µM) | 2 (≈ 3 µM) | 0.4 (≈ 0.599 µM)
COc1ccc(F)cc1[C@@H](O)Cn1c(=O)n([C@@H](C)C(=O)N2CCCC2)c(=O)c2c(C)c(-n3nccn3)sc21 [Compound I-218] | – | – | – | – | – | – | – | – | > 50 | 50 (≈ 92.2 µM) | 2 (≈ 3.69 µM) | 2 (≈ 3.69 µM) | ≥ 50 | 10 (≈ 18.4 µM) | 10 (≈ 18.4 µM) | 2 (≈ 3.69 µM)
COc1ccc(F)cc1[C@H](Cn1c(=O)n(C(C)(C)C(=O)N2CC=CC2)c(=O)c2c(C)c(-n3nccn3)sc21)OC(C)C [Compound I-067] | ≥ 2 | 0.08 (≈ 0.134 µM) | 0.4 (≈ 0.67 µM) | 0.08 (≈ 0.134 µM) | > 50 | 0.08 (≈ 0.134 µM) | 0.4 (≈ 0.67 µM) | 0.4 (≈ 0.67 µM) | – | – | – | – | – | – | – | –
COc1ccc(F)cc1[C@H](Cn1c(=O)n([C@@H](C)C(=O)NC(C)C)c(=O)c2c(C)c(-n3nccn3)sc21)OCC(C)(C)C#N [Compound I-254] | – | – | – | – | – | – | – | – | > 50 | ≥ 10 | > 50 | 2 (≈ 3.27 µM) | > 50 | > 50 | 2 (≈ 3.27 µM) | > 50

Now from value to molecule:

IC90 (Septoria tritici (St); [5]) [µg/mL] | IC90 (Diplodia maydis (Dm); [6]) [µg/mL] | IC90 [1, 7] [µg/mL] | IC90 [2, 8] [µg/mL] | IC90 [3, 9] [µg/mL] | IC90 [4, 10] [µg/mL] | IC90 (Botrtyis cinerea (Bc); [11]) [µg/mL] | IC90 (Rhizoctonia solani (Rs); [12]) [µg/mL] | IC90 (Septoria tritici (St); [13]) [µg/mL] | IC90 (Diplodia maydis (Dm); [14]) [µg/mL] | IC90 [1, 15] [µg/mL] | IC90 [2, 16] [µg/mL] | IC90 [3, 17] [µg/mL] | IC90 [4, 18] [µg/mL] | IC90 (Botrtyis cinerea (Bc); [19]) [µg/mL] | IC90 (Rhizoctonia solani (Rs); [20]) [µg/mL] | Structure (SMILES)
– | – | – | – | – | – | – | – | > 50 | > 50 | 10 (≈ 17.2 µM) | 2 (≈ 3.43 µM) | > 50 | 50 (≈ 85.8 µM) | 10 (≈ 17.2 µM) | 2 (≈ 3.43 µM) | Cc1c(-n2cccn2)sc2c1c(=O)n(C(C)(C)C(=O)NC(C)C)c(=O)n2C[C@H](OCCC#N)c1cc(F)ccc1O [Compound I-283]
– | – | – | – | – | – | – | – | ≥ 50 | 2 (≈ 3.26 µM) | 0.4 (≈ 0.653 µM) | 0.08 (≈ 0.131 µM) | 50 (≈ 81.6 µM) | 2 (≈ 3.26 µM) | 2 (≈ 3.26 µM) | 0.08 (≈ 0.131 µM) | CCc1ccc(F)cc1[C@H](Cn1c(=O)n(C(C)(C)C(=O)NC(C)C)c(=O)c2c(C)c(-n3nccn3)sc21)O[C@H]1C[C@@H](O)C1 [Compound I-280]
– | – | – | – | – | – | – | – | > 50 | > 50 | 10 (≈ 15.2 µM) | 0.4 (≈ 0.608 µM) | > 50 | > 50 | 10 (≈ 15.2 µM) | 2 (≈ 3.04 µM) | Cc1c(-n2nccn2)sc2c1c(=O)n(C(C)(C)C(=O)NC(C)C)c(=O)n2C[C@H](OCC(C)(C)C#N)c1cc(C#N)ccc1OCC#N [Compound I-269]
